According to US10441608B2, “Continuous methods for treating liquids and manufacturing certain constituents (e.g., nanoparticles) in liquids, apparatuses and nanoparticles and nanoparticle/liquid solution(s) resulting therefrom” (Clene Nanomedicine, Inc., priority 2009, dated 2019):
Converted amounts (≈) assume the structure as drawn. “And” between values parts separate entries of the source, which are not always exact repeats. Equal values may be shown once. Read-outs that look alike come from different tables or passages of the source.

Test system: Gram-Positive and Gram Negative bacteria
Assay type: cell-based

`C[C@H]1COc2c(N3CCN(C)CC3)c(F)cc3c(=O)c(C(=O)O)cn1c23` [Levofloxacin] was tested, and the “MIC/MID 50” value (Citrobacter freundii - antibiotic-susceptible clinical isolate) was 0.02 µg/mL (≈ 0.0553 µM), the “MIC/MID 50” value (Citrobacter freundii - resistant clinical isolate) was 8.00 µg/mL (≈ 22.1 µM) and the “MIC/MID 50” value (Enterobacter sp - antibiotic-susceptible clinical isolate) was 0.12 µg/mL (≈ 0.332 µM). The “MIC/MID 50” value (Enterobacter sp - multi-drug resistant clinical isolate) was 0.06 µg/mL (≈ 0.166 µM), the “MIC/MID 50” value (Enterococcus faecalis - ATCC 29212 antibiotic-susceptible control strain) was 2.00 µg/mL (≈ 5.53 µM) and the “MIC/MID 50” value (Enterococcus faecalis vancomycin-susceptible clinical isolate) was 4.00 µg/mL (≈ 11.1 µM). The “MIC/MID 50” value (Enterococcus faecium vancomycin-resistant (VanB) clinical isolate) was 4.00 µg/mL (≈ 11.1 µM), the “MIC/MID 50” value (Enterococcus gallinarum vancomycin-resistant (VanC) clinical isolate) was 2.00 µg/mL (≈ 5.53 µM) and the “MIC/MID 50” value (Escherichia coli ATCC25922 - antibiotic-susceptible type strain) was 0.02 µg/mL (≈ 0.0553 µM). For the same compound, the “MID/MIC (amount of antibiotic)” value (GN01 Escherichia coli ATCC25922, antibiotic-susceptible type strain) was 0.015 µg/mL, the “MID/MIC (amount of antibiotic)” value (GN02 Escherichia coli ATCC35218, β-lactamase positive type strain) was 0.015 µg/mL and the “MID/MIC (amount of antibiotic)” value (GN06 Enterobacter sp, antibiotic-susceptible clinical isolate) was 0.06 µg/mL and 0.12 µg/mL. The “MID/MIC (amount of antibiotic)” value (GN10 Pseudomonas aeruginosa ATCC27853, antibiotic-susceptible type strain) was 2 µg/mL, the “MID/MIC (amount of antibiotic)” value (GN11 Pseudomonas aeruginosa, multi-drug resistant clinical isolate) was 2 µg/mL and the “MID/MIC (amount of antibiotic)” value (GN12 Stenotrophomonas maltophilia, antibiotic-susceptible clinical isolate) was 0.25 µg/mL. For the same compound, the “MID/MIC (amount of antibiotic)” value (GN13 Stenotrophomonas maltophila, antibiotic-resistant clinical isolate) was 1 µg/mL, the “MID/MIC (amount of antibiotic)” value (GN14 Burkholderia cepacia, antibiotic-susceptible clinical isolate) was 4 µg/mL and the “MID/MIC (amount of antibiotic)” value (GN15 Proteus mirabilis, antibiotic-susceptible clinical isolate) was 0.06 µg/mL. The “MID/MIC (amount of antibiotic)” value (GN16 Proteus mirabilis, multi-drug resistant clinical isolate) was 2 µg/mL, the “MID/MIC (amount of antibiotic)” value (GN17 Salmonella sp, antibiotic-susceptible clinical isolate) was 0.03 µg/mL and the “MID/MIC (amount of antibiotic)” value (GN18 Salmonella sp, multi-drug resistant clinical isolate) was 0.06 µg/mL. The “MID/MIC (amount of antibiotic)” value (GN19 Shigella sp, antibiotic-susceptible clinical isolate) was 0.03 µg/mL, the “MID/MIC (amount of antibiotic)” value (GN20 Shigella sp, multi-drug resistant clinical isolate) was 0.03 µg/mL and the “MID/MIC (amount of antibiotic)” value (GN22 Morganella morganii, multi-drug resistant clinical isolate) was 1 µg/mL. The “MID/MIC (amount of antibiotic)” value (GN23 Providencia stuartii, antibiotic-susceptible clinical isolate) was 0.06 µg/mL, the “MID/MIC (amount of antibiotic)” value (GN24 Providencia stuartii, multi-drug resistant clinical isolate) was 8 µg/mL and the “MID/MIC (amount of antibiotic)” value (GN28 Haemophilus influenzae, β-lactamase negative ampicillin-resistant clinical isolate) was 0.06 µg/mL. The “MID/MIC (amount of antibiotic)” value (GN29 Moraxella catarrhalis, β-lactamase positive clinical isolate) was 0.06 µg/mL, the “MID/MIC (amount of antibiotic)” value (GN32 Acinetobacter baumanii, multi-drug resistant clinical isolate) was 8 µg/mL and the “MID/MIC (amount of antibiotic)” value (GN33 Bacteroides fragilis, antibiotic-susceptible clinical isolate, supplemented with 2% serum and 1 μg/mL Vit K) was 0.015 µg/mL. The “MID/MIC (amount of antibiotic)” value (GP02 Staphylococcus aureus ATCC 25923, antibiotic-susceptible control strain) was 0.12 µg/mL, the “MID/MIC (amount of antibiotic)” value (GP04 Staphylococcus aureus, methicillin-resistant clinical isolate) was 0.12 µg/mL and the “MID/MIC (amount of antibiotic)” value (GP05 Staphylococcus aureus, multi-drug-resistant clinical isolate) was 4 µg/mL. For the same compound, the “MID/MIC (amount of antibiotic)” value (GP06 Staphylococcus aureus, teicoplanin-intermediate clinical isolate) was 4 µg/mL, the “MID/MIC (amount of antibiotic)” value (GP07 Staphylococcus epidermidis, antibiotic susceptible clinical isolate) was 0.12 µg/mL and the “MID/MIC (amount of antibiotic)” value (GP08 Staphylococcus epidermidis, methicillin-resistant clinical isolate) was 0.25 µg/mL. The “MID/MIC (amount of antibiotic)” value (GP09 Staphylococcus haemolyticus, antibiotic susceptible clinical isolate) was 0.5 µg/mL, the “MID/MIC (amount of antibiotic)” value (GP10 Staphylococcus saprophyticus, antibiotic susceptible clinical isolate) was 0.5 µg/mL and the “MID/MIC (amount of antibiotic)” value (GP11 Enterococcus faecalis ATCC 29212, antibiotic-susceptible control strain) was 2 µg/mL. The “MID/MIC (amount of antibiotic)” value (GP12 Enterococcus faecalis, vancomycin-susceptible clinical isolate) was 4 µg/mL, the “MID/MIC (amount of antibiotic)” value (GP15 Enterococcus faecalis, high-level gentamicin-resistant clinical isolate) was over 8 µg/mL and the “MID/MIC (amount of antibiotic)” value (GP16 Enterococcus faecium, vancomycin-susceptible clinical isolate) was over 8 µg/mL. The “MID/MIC (amount of antibiotic)” value (GP17 Enterococcus faecium, vancomycin-resistant (VanA) clinical isolate) was 4 µg/mL, the “MID/MIC (amount of antibiotic)” value (GP18 Enterococcus faecium, vancomycin-resistant (VanB) clinical isolate) was 2 µg/mL and the “MID/MIC (amount of antibiotic)” value (GP19 Enterococcus gallinarum, vancomycin-resistant (VanC) clinical isolate) was 1 µg/mL. For the same compound, the “MID/MIC (amount of antibiotic)” value (GP20 Streptococcus pneumoniae ATCC 49619, antibiotic-susceptible control strain) was 1 µg/mL, the “MID/MIC (amount of antibiotic)” value (GP21 Streptococcus pneumoniae, pencillin-susceptible clinical isolate) was 0.5 µg/mL and the “MID/MIC (amount of antibiotic)” value (GP22 Streptococcus pneumoniae, penicillin-intermediate clinical isolate) was 0.5 µg/mL. For the same compound, the “MID/MIC (amount of antibiotic)” value (GP23 Streptococcus pneumoniae, penicillin-resistant clinical isolate) was 0.5 µg/mL and 1 µg/mL, the “MID/MIC (amount of antibiotic)” value (GP25 Streptococcus pyogenes, antibiotic-susceptible clinical isolate) was 0.5 µg/mL and the “MID/MIC (amount of antibiotic)” value (GP29 Corynebacterium jeikeium, multi-drug resistant clinical isolate) was 0.5 µg/mL. For the same compound, the “MID/MIC (amount of antibiotic)” value (GP30 Listeria monocytogenes, antibiotic-susceptible clinical isolate) was 8 µg/mL and the “MID/MIC (amount of antibiotic)” value (GP31 MU50 Staphylococcus aureus (MRSA), VISA type strain) was 0.06 µg/mL.
